# Source: ChEMBL document CHEMBL1136084, “N-(4-[4-(2,3-dichlorophenyl)piperazin-1-yl]butyl, butenyl and butynyl)arylcarboxamides as novel dopamine D(3) receptor antagonists” (Bioorg Med Chem Lett, 2003)
# Assays:
# D(2) dopamine receptor = D(2) dopamine receptor (Rattus norvegicus, UniProt P61169); test: biochemical
# D(3) dopamine receptor [1] = molecular target: D(3) dopamine receptor (Rattus norvegicus, UniProt P19020); test: Binding affinity towards rat Dopamine receptor D3 in Sf9 cells expressing in recombinant baculovirus (Bv) using [125I]IABN as radioligand
# D(3) dopamine receptor (Rattus norvegicus, UniProt P19020), sequence (P19020 whole entry): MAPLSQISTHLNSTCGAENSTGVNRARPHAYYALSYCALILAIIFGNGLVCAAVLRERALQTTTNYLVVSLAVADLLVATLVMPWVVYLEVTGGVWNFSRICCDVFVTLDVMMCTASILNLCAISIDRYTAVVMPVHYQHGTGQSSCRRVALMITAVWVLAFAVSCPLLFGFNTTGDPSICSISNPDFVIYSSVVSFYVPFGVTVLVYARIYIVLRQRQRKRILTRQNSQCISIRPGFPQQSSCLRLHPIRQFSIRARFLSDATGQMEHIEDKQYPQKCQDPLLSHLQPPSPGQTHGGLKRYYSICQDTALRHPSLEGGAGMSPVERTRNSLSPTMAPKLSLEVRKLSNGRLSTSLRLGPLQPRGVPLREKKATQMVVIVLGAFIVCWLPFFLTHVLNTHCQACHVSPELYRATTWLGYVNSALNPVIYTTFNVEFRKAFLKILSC
# D(3) dopamine receptor [2] = molecular target: D(3) dopamine receptor (Homo sapiens, UniProt P35462)
# D(3) dopamine receptor (Homo sapiens, UniProt P35462), sequence (P35462 whole entry): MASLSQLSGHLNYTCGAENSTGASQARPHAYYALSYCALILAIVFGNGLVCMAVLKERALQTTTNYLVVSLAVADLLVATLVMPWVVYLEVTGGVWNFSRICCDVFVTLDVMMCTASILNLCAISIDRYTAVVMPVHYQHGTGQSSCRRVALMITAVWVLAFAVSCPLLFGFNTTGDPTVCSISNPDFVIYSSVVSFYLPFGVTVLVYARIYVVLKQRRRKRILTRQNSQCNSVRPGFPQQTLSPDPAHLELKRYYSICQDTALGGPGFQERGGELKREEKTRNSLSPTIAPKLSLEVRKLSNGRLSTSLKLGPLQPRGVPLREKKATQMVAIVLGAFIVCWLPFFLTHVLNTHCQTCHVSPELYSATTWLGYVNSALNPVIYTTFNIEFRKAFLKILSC
# Description: Antagonistic activity of quinpirole stimulation of mitogenesis in human Dopamine receptor D3 transfected CHO cells
# D(2) dopamine receptor, sequence (P61169 whole entry): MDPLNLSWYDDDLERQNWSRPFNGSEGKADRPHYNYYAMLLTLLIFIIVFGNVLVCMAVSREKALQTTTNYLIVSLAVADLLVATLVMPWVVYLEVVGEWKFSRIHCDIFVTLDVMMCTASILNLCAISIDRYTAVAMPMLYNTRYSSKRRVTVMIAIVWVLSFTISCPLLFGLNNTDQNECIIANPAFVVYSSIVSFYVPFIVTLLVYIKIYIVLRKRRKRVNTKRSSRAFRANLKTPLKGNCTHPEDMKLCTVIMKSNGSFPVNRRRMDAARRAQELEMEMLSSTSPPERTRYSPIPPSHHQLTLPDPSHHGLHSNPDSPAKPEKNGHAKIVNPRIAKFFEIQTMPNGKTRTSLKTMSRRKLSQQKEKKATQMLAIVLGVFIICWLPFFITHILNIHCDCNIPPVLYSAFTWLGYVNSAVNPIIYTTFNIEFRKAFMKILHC
Ki (D(2) dopamine receptor) [nM],Ki (D(3) dopamine receptor [1]) [nM],Compound,IC50 (D(3) dopamine receptor [2]) [nM]
911,1.1,O=C(NCCCCN1CCN(c2cccc(Cl)c2Cl)CC1)c1ccc2c(c1)Cc1ccccc1-2,
150,1.6,O=C(NCCCCN1CCN(c2cccc(Cl)c2Cl)CC1)c1cccc2c1-c1ccccc1C2=O,
87.5,1.4,O=C(NCCCCN1CCN(c2cccc(Cl)c2Cl)CC1)c1ccc(I)cc1,
1020,84.5,O=C(NCCCN1CCN(c2ccccc2)CC1)C1c2ccccc2-c2ccccc21,
198,5.9,O=C(NC/C=C/CN1CCN(c2cccc(Cl)c2Cl)CC1)c1ccc2c(c1)Cc1ccccc1-2,
87.3,6,O=C(NC/C=C\CN1CCN(c2cccc(Cl)c2Cl)CC1)c1ccc2c(c1)Cc1ccccc1-2,
134,4.5,O=C(NCCCCN1CCN(c2cccc(Cl)c2Cl)CC1)c1cccc2c1-c1ccccc1C2,
153,43,O=C(NCCCN1CCN(c2cccc(Cl)c2Cl)CC1)c1cccc2c1-c1ccccc1C2=O,
396,199,O=C(NCCCN1CCN(c2cccc(Cl)c2Cl)CC1)c1ccc2c(c1)Cc1ccccc1-2,
35.3,2,O=C(NCCCCCN1CCN(c2cccc(Cl)c2Cl)CC1)c1cccc2c1-c1ccccc1C2=O,
,2.6,O=C(NCCCCN1CCN(c2cccc(Cl)c2Cl)CC1)c1cc2cc(F)ccc2[nH]1,
250,34,O=C(NCCCN1CCN(c2cccc(Cl)c2Cl)CC1)C1c2ccccc2-c2ccccc21,
57.9,0.6,O=C(NCCCCN1CCN(c2cccc(Cl)c2Cl)CC1)c1ccc(-c2ccccn2)cc1,
376,139,O=C(NCCCN1CCN(c2cccc(Cl)c2Cl)CC1)c1cccc2c1-c1ccccc1C2,
50.1,1.3,O=C(NC/C=C/CN1CCN(c2cccc(Cl)c2Cl)CC1)c1ccccc1,
1000,214,O=C(NCC#CCN1CCN(c2cccc(Cl)c2Cl)CC1)c1ccc2c(c1)Cc1ccccc1-2,
891,1080,O=C(NCC#CCN1CCN(c2cccc(Cl)c2Cl)CC1)c1cccc2c1-c1ccccc1C2,
1700,394,O=C(NCC#CCN1CCN(c2cccc(Cl)c2Cl)CC1)c1ccccc1,
20,4.9,O=C(NC/C=C\CN1CCN(c2cccc(Cl)c2Cl)CC1)c1ccccc1,

Compound,Ki (D(2) dopamine receptor) [nM],Ki (D(3) dopamine receptor [1]) [nM],IC50 (D(3) dopamine receptor [2]) [nM]
O=C(NCCCCN1CCN(c2cccc(Cl)c2Cl)CC1)c1cnc2ccccc2n1,109,1.9,26.9
O=C(NC/C=C\CN1CCN(c2cccc(Cl)c2Cl)CC1)c1cccc2c1-c1ccccc1C2,10.7,6.5,
O=C1c2ccccc2C(=O)N1CCCCCN1CCN(c2cccc(Cl)c2Cl)CC1,86.4,5.6,
O=C(NCCCCN1CCN(c2cccc(Cl)c2Cl)CC1)C1c2ccccc2-c2ccccc21,55.2,11.1,
O=C(NC/C=C/CN1CCN(c2cccc(Cl)c2Cl)CC1)c1cccc2c1-c1ccccc1C2,106,19,
O=C1c2ccccc2C(=O)N1CCCCN1CCN(c2cccc(Cl)c2Cl)CC1,102,4.8,
Nc1ccc2c(c1)-c1c(cccc1C(=O)NCCCCN1CCN(c3cccc(Cl)c3Cl)CC1)C2,79.3,3.5,
